pEC50, pIC50: −log10 of the molar value.
Columns and labels:
[1] = biological target: T1, Transient receptor potential cation channel subfamily M member 8 (Homo sapiens, UniProt Q7Z2W7); test: Antagonist activity at human TRPM8 expressed in HEK293 cells assessed as reduction in menthol induced calcium influx; assay type: cell-based
[2] = biological target: T1, Transient receptor potential cation channel subfamily M member 8; test: Agonist activity at TRPM8 (unknown origin)
[3] = biological target: Transient receptor potential cation channel subfamily A member 1 (Homo sapiens, UniProt O75762); test: Agonist activity at TRPA1 (unknown origin)
[4] = biological target: T1, Transient receptor potential cation channel subfamily M member 8; test: Agonist activity at human TRMP8 expressed in HEK293 cells; assay type: cell-based
Rattus norvegicus [5] = test: Antinociceptive activity at rat assessed as reduction in pain at 30 mg/kg, po relative to control; assay type: functional
Rattus norvegicus [6] = species: Rattus norvegicus; test: Antihypersensitivity activity at rat assessed as cardiovascular pressor responses relative to control; assay type: functional
Rattus norvegicus [7] = test: Antihypersensitivity activity at carrageenan induced rat assessed as reduction in heat hypersensitivity at 30 mg/kg, po relative to control; assay type: functional
Rattus norvegicus [8] = test: Antihypersensitivity activity at cfa induced rat assessed as thermal and mechanical hyperalgesia at 10 mg/kg, po relative to control; assay type: functional
Rattus norvegicus [9] = species: Rattus norvegicus; test: Antihypersensitivity activity at rat assessed as reduction in wet-dog shakes relative to control; assay type: functional
[10] = biological target: T1, Transient receptor potential cation channel subfamily M member 8; test: […] activity at human TRMP8 expressed in HEK293 cells measured after 24 hrs of menthol activation by patch clamp assay; assay type: cell-based
[11] = biological target: T1, Transient receptor potential cation channel subfamily M member 8; test: […] activity at human TRMP8 expressed in HEK293 cells measured after 24 hrs of cold activation by patch clamp assay; assay type: cell-based
[12] = biological target: T1, Transient receptor potential cation channel subfamily M member 8; test: Antagonist activity at TRPM8 (unknown origin)
[13] = biological target: T1, Transient receptor potential cation channel subfamily M member 8; test: Antagonist activity at human TRMP8 incubated for 24 hrs; assay type: cell-based, HEK293
[14] = biological target: T1, Transient receptor potential cation channel subfamily M member 8; test: […] activity at human TRMP8 expressed in HEK293 cells incubated for 24 hrs by HTS assay; assay type: cell-based
[15] = biological target: Transient receptor potential cation channel subfamily V member 1 (Homo sapiens, UniProt Q8NER1); test: Modulation of TRPV1 (unknown origin) by fluorometric imaging plate reader analysis
[16] = biological target: T1, Transient receptor potential cation channel subfamily M member 8; test: Agonist activity at TRPM8 (unknown origin) by fluorometric imaging plate reader analysis
[17] = biological target: T1, Transient receptor potential cation channel subfamily M member 8; test: Antagonist activity at human TRPM8 expressed in CHO cells; assay type: cell-based
Rattus norvegicus [18] = test: Antihypersensitivity activity at rat assessed as reduction in wet-dog shakes at 1 mg/kg relative to control; assay type: functional
[19] = biological target: Transient receptor potential cation channel subfamily M member 8 (Mus musculus, UniProt Q8R4D5); test: Agonist activity at mouse TRMP8 expressed in HEK293 cells; assay type: cell-based
Rattus norvegicus [20] = test: Antihypersensitivity activity at icilin induced rat assessed as reduction in wet-dog shakes at 3 mg/kg relative to control; assay type: functional
[21] = biological target: T1, Transient receptor potential cation channel subfamily M member 8; test: Antagonist activity at human TRPM8 expressed in […] induced HEK293 cells; assay type: cell-based
[22] = biological target: T1, Transient receptor potential cation channel subfamily M member 8; test: Antagonist activity at human TRPM8 expressed in HEK293 cells; assay type: cell-based
Rattus norvegicus [23] = species: Rattus norvegicus; test: Antihypersensitivity activity at rat assessed as reduction in pain relative to control; assay type: functional
Rattus norvegicus [24] = test: Reversal of icilin induced behaviours in rat at 10 mg/kg, po relative to control; assay type: functional
Rattus norvegicus [25] = test: Reversal of icilin induced behaviours in rat at 30 mg/kg, po relative to control; assay type: functional
[26] = biological target: T1, Transient receptor potential cation channel subfamily M member 8; test: Agonist activity at human recombinant TRPM8
[27] = biological target: Transient receptor potential cation channel subfamily M member 8 (Rattus norvegicus) (UniProt Q8R455); test: In vivo antagonist activity at TRPM8 in po dosed rat assessed as shaking behaviour; assay type: functional, organism-based
[28] = biological target: T1, Transient receptor potential cation channel subfamily M member 8; test: Antagonist activity at TRPM8 (unknown origin) by fluorescence based assay

T1 sequence (Q7Z2W7 whole entry): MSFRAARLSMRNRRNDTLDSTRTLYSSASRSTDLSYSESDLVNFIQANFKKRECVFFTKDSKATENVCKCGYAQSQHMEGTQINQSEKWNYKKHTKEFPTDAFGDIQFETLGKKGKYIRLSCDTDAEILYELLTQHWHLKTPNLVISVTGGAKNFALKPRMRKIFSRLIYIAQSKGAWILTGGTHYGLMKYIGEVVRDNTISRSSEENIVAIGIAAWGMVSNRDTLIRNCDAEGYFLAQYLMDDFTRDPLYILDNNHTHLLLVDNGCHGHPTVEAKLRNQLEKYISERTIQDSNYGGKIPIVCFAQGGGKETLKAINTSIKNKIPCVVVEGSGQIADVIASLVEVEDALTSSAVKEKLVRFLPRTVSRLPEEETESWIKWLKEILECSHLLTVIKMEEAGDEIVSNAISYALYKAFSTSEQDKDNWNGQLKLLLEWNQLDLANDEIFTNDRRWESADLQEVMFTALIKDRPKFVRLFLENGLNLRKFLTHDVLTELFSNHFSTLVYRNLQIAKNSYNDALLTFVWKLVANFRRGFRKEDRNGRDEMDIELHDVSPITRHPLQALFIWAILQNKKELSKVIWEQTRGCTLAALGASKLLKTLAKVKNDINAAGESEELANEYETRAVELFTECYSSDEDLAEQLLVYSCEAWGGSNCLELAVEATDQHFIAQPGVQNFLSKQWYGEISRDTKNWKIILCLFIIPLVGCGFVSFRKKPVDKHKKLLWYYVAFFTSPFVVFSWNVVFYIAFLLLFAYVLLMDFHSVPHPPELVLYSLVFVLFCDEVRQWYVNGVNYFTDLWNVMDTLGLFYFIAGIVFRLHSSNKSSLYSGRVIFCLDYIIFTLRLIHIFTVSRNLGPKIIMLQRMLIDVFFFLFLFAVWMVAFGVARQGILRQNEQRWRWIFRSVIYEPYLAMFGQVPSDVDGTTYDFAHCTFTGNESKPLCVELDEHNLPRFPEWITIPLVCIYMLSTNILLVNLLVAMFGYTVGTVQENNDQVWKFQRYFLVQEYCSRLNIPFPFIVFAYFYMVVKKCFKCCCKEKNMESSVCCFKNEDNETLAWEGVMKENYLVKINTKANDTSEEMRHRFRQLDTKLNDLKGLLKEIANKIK
Chain of Transient receptor potential cation channel subfamily M member 8 (Mus musculus, UniProt Q8R4D5) (Q8R4D5 whole entry): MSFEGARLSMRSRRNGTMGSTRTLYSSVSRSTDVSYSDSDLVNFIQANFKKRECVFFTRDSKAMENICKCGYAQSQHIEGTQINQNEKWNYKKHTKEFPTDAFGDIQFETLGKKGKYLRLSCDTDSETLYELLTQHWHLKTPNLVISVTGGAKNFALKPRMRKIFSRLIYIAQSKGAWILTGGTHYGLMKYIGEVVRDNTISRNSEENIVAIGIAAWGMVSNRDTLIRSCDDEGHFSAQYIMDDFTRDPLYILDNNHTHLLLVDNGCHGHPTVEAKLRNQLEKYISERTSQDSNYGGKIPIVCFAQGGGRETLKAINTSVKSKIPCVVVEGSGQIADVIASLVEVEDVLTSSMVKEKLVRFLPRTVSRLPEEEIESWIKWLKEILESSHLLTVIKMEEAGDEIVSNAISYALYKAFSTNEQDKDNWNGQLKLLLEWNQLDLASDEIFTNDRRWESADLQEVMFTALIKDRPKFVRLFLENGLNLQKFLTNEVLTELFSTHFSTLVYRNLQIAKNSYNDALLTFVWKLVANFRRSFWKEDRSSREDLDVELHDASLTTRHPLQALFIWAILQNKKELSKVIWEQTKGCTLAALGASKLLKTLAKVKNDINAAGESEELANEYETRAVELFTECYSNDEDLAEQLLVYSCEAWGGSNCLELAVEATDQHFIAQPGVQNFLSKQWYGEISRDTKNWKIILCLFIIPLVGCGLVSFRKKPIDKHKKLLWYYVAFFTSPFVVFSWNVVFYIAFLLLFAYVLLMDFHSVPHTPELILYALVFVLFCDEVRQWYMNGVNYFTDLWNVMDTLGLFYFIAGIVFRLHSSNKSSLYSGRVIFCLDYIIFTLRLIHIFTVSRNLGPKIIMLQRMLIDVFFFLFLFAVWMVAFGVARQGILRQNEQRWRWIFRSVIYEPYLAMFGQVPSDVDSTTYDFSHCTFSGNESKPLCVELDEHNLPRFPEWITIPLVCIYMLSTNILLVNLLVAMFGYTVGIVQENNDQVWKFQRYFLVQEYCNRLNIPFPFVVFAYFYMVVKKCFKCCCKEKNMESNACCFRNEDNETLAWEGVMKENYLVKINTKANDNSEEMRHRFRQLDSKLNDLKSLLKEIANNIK
Chain of Transient receptor potential cation channel subfamily V member 1 (Q8NER1 whole entry): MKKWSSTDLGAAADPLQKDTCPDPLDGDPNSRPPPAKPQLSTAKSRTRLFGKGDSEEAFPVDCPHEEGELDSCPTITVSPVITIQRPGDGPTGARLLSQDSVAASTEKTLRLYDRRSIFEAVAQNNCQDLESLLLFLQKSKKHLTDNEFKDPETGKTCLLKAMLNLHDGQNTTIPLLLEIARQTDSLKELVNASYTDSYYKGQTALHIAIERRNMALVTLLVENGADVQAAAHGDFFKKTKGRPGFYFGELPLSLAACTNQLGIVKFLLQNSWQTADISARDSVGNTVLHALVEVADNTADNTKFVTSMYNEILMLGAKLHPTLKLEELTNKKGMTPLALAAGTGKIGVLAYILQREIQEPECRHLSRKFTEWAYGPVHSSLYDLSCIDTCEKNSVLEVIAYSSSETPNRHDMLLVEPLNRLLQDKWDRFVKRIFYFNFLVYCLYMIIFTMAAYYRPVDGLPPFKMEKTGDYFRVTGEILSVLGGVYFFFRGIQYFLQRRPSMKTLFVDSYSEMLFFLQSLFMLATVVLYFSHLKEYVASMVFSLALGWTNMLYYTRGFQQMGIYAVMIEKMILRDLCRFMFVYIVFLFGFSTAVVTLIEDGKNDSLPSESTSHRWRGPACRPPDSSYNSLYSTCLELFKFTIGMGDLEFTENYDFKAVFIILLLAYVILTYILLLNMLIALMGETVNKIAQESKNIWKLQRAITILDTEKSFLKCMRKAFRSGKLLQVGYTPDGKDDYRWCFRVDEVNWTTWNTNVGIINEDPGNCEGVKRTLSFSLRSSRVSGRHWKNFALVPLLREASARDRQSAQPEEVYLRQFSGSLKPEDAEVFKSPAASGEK
Chain of Transient receptor potential cation channel subfamily M member 8 (Rattus norvegicus) (Q8R455 whole entry, looked up): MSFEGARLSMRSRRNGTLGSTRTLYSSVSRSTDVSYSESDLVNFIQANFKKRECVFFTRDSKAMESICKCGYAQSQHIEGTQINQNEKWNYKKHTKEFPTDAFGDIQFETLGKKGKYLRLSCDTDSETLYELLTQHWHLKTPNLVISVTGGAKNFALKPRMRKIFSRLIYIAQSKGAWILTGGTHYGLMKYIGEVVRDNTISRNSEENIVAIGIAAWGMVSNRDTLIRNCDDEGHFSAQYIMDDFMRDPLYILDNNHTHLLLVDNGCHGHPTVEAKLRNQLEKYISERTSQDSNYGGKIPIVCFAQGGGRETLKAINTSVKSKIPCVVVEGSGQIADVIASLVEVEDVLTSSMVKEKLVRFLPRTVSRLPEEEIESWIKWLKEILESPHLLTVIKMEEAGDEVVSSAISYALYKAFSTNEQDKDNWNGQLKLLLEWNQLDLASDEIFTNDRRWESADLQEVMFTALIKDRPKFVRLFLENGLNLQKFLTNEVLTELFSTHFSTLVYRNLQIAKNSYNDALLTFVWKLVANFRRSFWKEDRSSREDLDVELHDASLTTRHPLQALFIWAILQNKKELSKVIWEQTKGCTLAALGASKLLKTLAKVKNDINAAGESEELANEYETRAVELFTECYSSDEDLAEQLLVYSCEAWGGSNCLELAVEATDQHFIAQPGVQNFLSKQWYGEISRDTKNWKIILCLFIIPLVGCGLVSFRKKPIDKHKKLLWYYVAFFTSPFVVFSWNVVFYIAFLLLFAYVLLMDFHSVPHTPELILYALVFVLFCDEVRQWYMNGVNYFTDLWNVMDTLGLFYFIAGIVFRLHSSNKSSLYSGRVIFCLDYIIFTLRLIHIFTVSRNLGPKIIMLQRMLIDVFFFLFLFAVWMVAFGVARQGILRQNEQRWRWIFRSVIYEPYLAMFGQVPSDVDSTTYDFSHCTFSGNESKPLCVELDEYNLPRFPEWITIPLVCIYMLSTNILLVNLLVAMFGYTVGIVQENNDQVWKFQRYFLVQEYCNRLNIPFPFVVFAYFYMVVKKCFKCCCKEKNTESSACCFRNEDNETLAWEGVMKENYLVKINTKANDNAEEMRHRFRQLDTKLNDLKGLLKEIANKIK

Question: With `Cc1ccc2nc(C(F)(F)F)n(-c3ccc(C(=O)CN4C(=O)NC5(CCC(F)(F)CC5)C4=O)cc3)c2n1` as the compound, how does the pIC50 [1] read?
Answer: > 8.00

Question: How did the pEC50 [2] turn out when `Clc1ccc(-c2nnc(N3CCOCC3)n2-c2ccccc2)cc1` was run?
Answer: 4.35

Question: And the pEC50 [3]?
Answer: 5.40

Question: How did the pEC50 [4] turn out when `C=CCc1ccc(O)c(OC)c1` [EUGENOL] was run?
Answer: 4.18

Question: `Cc1cc(NC(C)C)no1` was tested. Which pEC50 [2] did it give?
Answer: 7.00

Question: Which inhibition in vivo at 30 mg/kg (Rattus norvegicus [5]) does the source give for `Cc1c(N(Cc2ccc(F)c(C(F)(F)F)c2)S(=O)(=O)c2ccc(C(=O)O)cc2)sc2ccccc12` here?
Answer: 69%

Question: What about the “inhibition (INH)” value (Rattus norvegicus [6]) of the same compound?
Answer: 75%

Question: What about the inhibition in vivo at 30 mg/kg (Rattus norvegicus [7]) of the same compound?
Answer: 64%

Question: What about the Activity (Rattus norvegicus [8]) of the same compound?
Answer: 91%

Question: And the ED50 (Rattus norvegicus [9])?
Answer: 2.5 mg/kg

Question: And the pIC50 [10]?
Answer: 8.96

Question: What about the pIC50 [11] of the same compound?
Answer: 8.64

Question: How did the pIC50 [12] turn out when `CCCCC/C=C/C/C=C\C/C=C/C/C=C/CCCC(=O)NCCc1ccc(O)c(O)c1` was run?
Answer: 6.15

Question: With `CCn1/c(=N/S(=O)(=O)c2ccccc2)n(Cc2ccc(C(F)(F)F)c(F)c2)c2cc(C(F)(F)F)ccc21` as the compound, how does the pIC50 [13] read?
Answer: 8.30

Question: `CCCCC/C=C/C/C=C\C/C=C/C/C=C/CCCC(=O)NCCO` was tested. Which pIC50 [12] did it give?
Answer: 6.82

Question: `Cc1c(N(Cc2ccc(OC(F)(F)F)cc2)S(=O)(=O)CCN2CCC(c3ccccc3)CC2)sc2ccccc12` was tested. Which pIC50 [14] did it give?
Answer: 7.59

Question: With `Cc1c(N(Cc2ccc(F)c(C(F)(F)F)c2)S(=O)(=O)N2CCC(C(=O)O)CC2)sc2ccccc12` as the compound, how does the pIC50 [14] read?
Answer: 7.59

Question: Which results are given for `c1ccc(CN(CCc2c[nH]c3ccccc23)Cc2ccccc2)cc1`?
Answer: pIC50 [15]: 7.46; pIC50 [12]: 6.10

Question: How did the pIC50 [12] turn out when `CCCCCc1cc2c(c(O)c1C(=O)O)[C@@H]1C=C(C)CC[C@H]1C(C)(C)O2` [DELTA9-TETRAHYDROCANNABINOLIC ACID A] was run?
Answer: 6.82

Question: How did the pEC50 [16] turn out when `CC(C)[C@@H]1CC[C@@H](C)C[C@H]1OC(=O)[C@@H](C)O` was run?
Answer: 3.80

Question: What does the source list for `O=C(N[C@]1(c2ccc(OC(F)(F)F)cc2)CCOc2cccnc21)c1ccc2[nH]cnc2c1`?
Answer: pIC50 [17]: 8.40; inhibition in vivo at 1 mg/kg (Rattus norvegicus [18]): > 90%

Question: How did the pIC50 [12] turn out when `CCCCCc1cc(O)c2c(c1)OC(C)(C)[C@@H]1CCC(C)=C[C@@H]21` [DRONABINOL] was run?
Answer: 6.80

Question: `CC(C)=CCC/C(C)=C/CO` [GERANIOL] was tested. Which pEC50 [19] did it give?
Answer: 2.22

Question: How did the pEC50 [16] turn out when `COc1ccc2c(c1)n(CCN)c(=O)n2C(=O)[C@@H]1C[C@H](C)CC[C@H]1C(C)C` was run?
Answer: > 5.30

Question: With `COc1cc(CNC(=O)CCCC/C=C/C(C)C)ccc1O` [CAPSAICIN] as the compound, how does the pIC50 [12] read?
Answer: 6.00

Question: With `COc1cc(CN(CCN)c2nc3ccccc3s2)ccc1OCc1ccccc1F` as the compound, how does the pIC50 [12] read?
Answer: > 7.70

Question: With `COc1ccc(NC(=O)[C@@H]2C[C@H](C)CC[C@H]2C(C)C)c(NC(=O)[C@@H](C)N)c1` as the compound, how does the pEC50 [16] read?
Answer: 5.52

Question: How did the pIC50 [12] turn out when `COc1ccc(CCCOC(Cn2ccnc2)c2ccc(OC)cc2)cc1` (stereo not drawn) was run?
Answer: 6.10

Question: With `Clc1ccccc1C(c1ccccc1)(c1ccccc1)n1ccnc1` [CLOTRIMAZOLE] as the compound, how does the pIC50 [12] read?
Answer: 5.10

Question: For `COc1ccccc1C(=O)N([C@H]1CCc2c(F)cc(Cl)cc21)[C@@H](C(N)=O)c1ccccc1`, which inhibition in vivo at 3 mg/kg (Rattus norvegicus [20]) is on record?
Answer: 100%

Question: How did the pIC50 [21] turn out when `NCCc1c[nH]c2ccc(Oc3ccccc3)cc12` was run?
Answer: 6.47

Question: How did the pIC50 [22] turn out when `COc1cc(CN(CCN)C(=O)NC(C)c2ccccc2)ccc1OCc1ccccc1` (stereo not drawn) was run?
Answer: 10.30

Question: How did the pEC50 [19] turn out when `CC12CCC(CC1)C(C)(C)O2` [EUCALYPTOL] was run?
Answer: 2.15

Question: How did the pIC50 [12] turn out when `C=C(C)[C@]12C[C@@H](C)[C@@]34OC(Cc5ccccc5)(O[C@@H]1C3C=C(COC(=O)Cc1ccc(O)c(OC)c1)C[C@]1(O)C(=O)C(C)=C[C@@H]41)O2` (stereo partly drawn) was run?
Answer: 6.82

Question: `C[C@H](N)[C@H](O)C/C=C\C/C=C\C/C=C\C/C=C\C/C=C\C/C=C\CCCCCC[C@@H](O)[C@H](C)N` was tested. Which pIC50 [12] did it give?
Answer: 5.22

Question: How did the “inhibition (INH)” value (Rattus norvegicus [23]) turn out when `FC(F)(F)c1ccccc1-c1cc(C(F)(F)F)c2[nH]c(C3=NOC4(CCCCC4)C3)nc2c1` was run?
Answer: 83%

Question: What about the Activity (Rattus norvegicus [24]) of the same compound?
Answer: 98%

Question: `COc1nc(-c2ccccc2Cl)cc2nc(-c3c(Cl)c(C(C)(C)C)nn3C)[nH]c12` was tested. Which pIC50 [13] did it give?
Answer: 8.46

Question: With `CCn1c(N(Cc2ccc(C(F)(F)F)cc2)S(=O)(=O)c2ccccc2)nc2cc(F)ccc21` as the compound, how does the pIC50 [13] read?
Answer: 8.22

Question: `CCCCCc1cc(O)c(C/C=C(\C)CCC=C(C)C)c(O)c1` [CANNABIGEROL] was tested. Which pIC50 [12] did it give?
Answer: 6.80

Question: With `CC(C)OP(=O)(OC(C)C)[C@@H](Cc1ccc(F)c(C(F)(F)F)c1)c1sc2ccccc2c1Br` as the compound, how does the Activity (Rattus norvegicus [25]) read?
Answer: 80%

Question: And the pIC50 [14]?
Answer: 8.05

Question: `C=C(C)[C@@H]1CCC(C)=C[C@H]1c1c(O)cc(CCCCC)cc1O` [CANNABIDIOL] was tested. Which pIC50 [12] did it give?
Answer: 7.22

Question: With `Clc1ccc(COC(Cn2ccnc2)c2ccc(Cl)cc2Cl)cc1` (stereo not drawn) [ECONAZOLE] as the compound, how does the pIC50 [12] read?
Answer: 6.38

Question: With `C=CCc1cc(OC)c(OC(C)C(O[C@@H]2C[C@H](C)CC[C@H]2C(C)C)c2ccc(OC)c(OC)c2)c(OC)c1` (stereo partly drawn) as the compound, how does the pEC50 [16] read?
Answer: 5.00

Question: How did the pEC50 [26] turn out when `COc1cnc(-c2ccccn2)nc1CC(C)C` was run?
Answer: 7.00

Question: `O=C(O)c1ccc(S(=O)(=O)N(Cc2ccc(OC(F)(F)F)cc2)c2ncc(C(F)(F)F)cc2Cl)cc1` was tested. Which ED50 [27] did it give?
Answer: 0.65 mg/kg

Question: `CC(C)[C@@H]1CC[C@@H](C)C[C@H]1C(=O)Nc1ccc(S(=O)(=O)Nc2ncccn2)cc1` was tested. Which pEC50 [16] did it give?
Answer: 5.40

Question: With `COC(=O)C(NCc1ccccc1)[C@H](Cc1ccccc1)NC(=O)OCc1ccccc1` (stereo partly drawn) as the compound, how does the pIC50 [28] read?
Answer: 5.52

Question: `COc1ccc(NC(=O)[C@@H]2C[C@H](C)CC[C@H]2C(C)C)cc1` [ACOLTREMON] was tested. Which pEC50 [16] did it give?
Answer: 4.92

Question: `CC(C)[C@@H]1CC[C@@H](C)C[C@H]1C(=O)NCC(NC(=O)[C@H](C)N)c1ccccc1` (stereo partly drawn) was tested. Which pEC50 [16] did it give?
Answer: > 5.30

— ChEMBL document CHEMBL5252528, “Transient Receptor Potential Melastatin 8 Channel (TRPM8) Modulation: Cool Entryway for Treating Pain and Cancer” (J Med Chem, 2016)
